The target in data set [1] is T1, Lysine-specific histone demethylase 1A (Homo sapiens, UniProt O60341).
Description: Inhibition of human recombinant LSD1 using fluorogenic ADHP based substrate preincubated for 30 mins followed by substrate addition measured after 10 mins by horseradish peroxidase coupled fluorescence assay
The target of data set [2] is T1, Lysine-specific histone demethylase 1A. The data set is described as follows: Inhibition of LSD1 (unknown origin) by TR-FRET assay.
For the next data set, the target named is CYP2D6 (Homo sapiens, UniProt P10635). The data set is described as follows: Inhibition of CYP2D6 in human liver microsomes at 10 uM using CYP substrate preincubated for 10 mins followed by NADPH generating system addition and measured after 10 mins by LC-MS/MS analysis relative to control. The data set is classed as ADME. The note with it: time 20 min.
CYP2D6, sequence (P10635 whole entry): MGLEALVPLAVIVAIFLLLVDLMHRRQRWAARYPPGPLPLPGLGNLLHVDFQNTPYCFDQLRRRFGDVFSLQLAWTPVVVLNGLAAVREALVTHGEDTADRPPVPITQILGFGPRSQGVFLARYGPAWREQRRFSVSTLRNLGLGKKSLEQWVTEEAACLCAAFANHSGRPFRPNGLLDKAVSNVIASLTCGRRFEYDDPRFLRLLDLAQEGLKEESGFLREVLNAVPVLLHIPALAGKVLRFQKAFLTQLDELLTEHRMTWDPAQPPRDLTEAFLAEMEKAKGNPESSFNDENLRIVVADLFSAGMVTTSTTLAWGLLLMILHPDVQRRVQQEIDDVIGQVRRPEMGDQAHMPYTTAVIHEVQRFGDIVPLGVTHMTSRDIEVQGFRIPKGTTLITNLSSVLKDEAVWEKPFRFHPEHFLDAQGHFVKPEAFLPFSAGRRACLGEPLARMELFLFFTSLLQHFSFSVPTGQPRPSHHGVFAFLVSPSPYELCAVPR

The target in the next data set is CYP2C9 (Homo sapiens, UniProt P11712). The data set is described as follows: Inhibition of CYP2C9 in human liver microsomes at 10 uM using CYP substrate preincubated for 10 mins followed by NADPH generating system addition and measured after 10 mins by LC-MS/MS analysis relative to control. The data set is classed as ADME. Conditions: time 20 min.
CYP2C9, sequence (P11712 whole entry): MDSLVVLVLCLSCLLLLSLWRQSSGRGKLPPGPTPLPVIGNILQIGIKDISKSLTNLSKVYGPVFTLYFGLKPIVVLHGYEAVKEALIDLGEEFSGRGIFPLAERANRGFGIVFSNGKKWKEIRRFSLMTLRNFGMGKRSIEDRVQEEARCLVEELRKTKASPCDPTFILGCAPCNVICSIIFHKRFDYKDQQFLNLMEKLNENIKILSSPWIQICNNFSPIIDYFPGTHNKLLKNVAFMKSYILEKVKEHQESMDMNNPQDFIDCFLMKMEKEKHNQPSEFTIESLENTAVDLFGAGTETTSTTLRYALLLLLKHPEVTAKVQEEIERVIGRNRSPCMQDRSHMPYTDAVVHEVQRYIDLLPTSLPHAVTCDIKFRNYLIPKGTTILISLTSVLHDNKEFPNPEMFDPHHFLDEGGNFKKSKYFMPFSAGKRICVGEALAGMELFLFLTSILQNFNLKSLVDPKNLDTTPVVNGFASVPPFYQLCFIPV
Another data set deals with CYP2C19 (Homo sapiens, UniProt P33261). The data set is described as follows: Inhibition of CYP2C19 in human liver microsomes at 10 uM using CYP substrate preincubated for 10 mins followed by NADPH generating system addition and measured after 10 mins by LC-MS/MS analysis relative to control. The data set is classed as ADME. The note with it: time 20 min.
CYP2C19, sequence (P33261 whole entry): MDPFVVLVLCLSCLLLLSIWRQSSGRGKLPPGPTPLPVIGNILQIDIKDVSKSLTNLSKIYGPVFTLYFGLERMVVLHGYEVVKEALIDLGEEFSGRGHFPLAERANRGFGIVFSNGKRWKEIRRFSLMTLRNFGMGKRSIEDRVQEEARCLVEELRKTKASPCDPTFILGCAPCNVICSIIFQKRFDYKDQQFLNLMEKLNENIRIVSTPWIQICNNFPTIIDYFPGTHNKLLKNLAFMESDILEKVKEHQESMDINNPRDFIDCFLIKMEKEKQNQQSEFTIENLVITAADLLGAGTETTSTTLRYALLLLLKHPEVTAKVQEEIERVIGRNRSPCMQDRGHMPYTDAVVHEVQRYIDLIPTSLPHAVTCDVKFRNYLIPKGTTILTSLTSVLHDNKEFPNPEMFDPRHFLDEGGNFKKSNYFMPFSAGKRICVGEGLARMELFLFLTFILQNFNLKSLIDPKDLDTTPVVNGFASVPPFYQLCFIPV
For another data set, the system named is NB-4. The data set is described as follows: cells. Conditions: Homo sapiens, NB-4, 72 h.
Data set [3] in a line: Stability in human liver microsomes assessed as parent compound remaining measured 60 mins after mins by LC-MS/MS analysis. The note with it: microsomes, 1 h. It counts as ADME, Microsome.
For the next data set, the system named is THP-1. The data set is described as follows: cells. The note with it: Homo sapiens, THP-1, 72 h.
Data set [4] addresses T1, Lysine-specific histone demethylase 1A. The data set is described as follows: Inhibition of LSD1 in human MGC-803 cells assessed as increase in H3K4me2 accumulation measured after 72 hrs by Western blot analysis. It counts as cell-based.
Data set [5] concerns MGC-803. The data set is described as follows: Cell cycle arrest in human MGC-803 cells assessed as increase in S phase accumulation at 4 uM after 72 hrs by propidium iodide staining based flow cytometry. It counts as functional.
The next data set addresses T2, CYP1A2 (Homo sapiens, UniProt P05177).
T2 sequence (P05177 whole entry): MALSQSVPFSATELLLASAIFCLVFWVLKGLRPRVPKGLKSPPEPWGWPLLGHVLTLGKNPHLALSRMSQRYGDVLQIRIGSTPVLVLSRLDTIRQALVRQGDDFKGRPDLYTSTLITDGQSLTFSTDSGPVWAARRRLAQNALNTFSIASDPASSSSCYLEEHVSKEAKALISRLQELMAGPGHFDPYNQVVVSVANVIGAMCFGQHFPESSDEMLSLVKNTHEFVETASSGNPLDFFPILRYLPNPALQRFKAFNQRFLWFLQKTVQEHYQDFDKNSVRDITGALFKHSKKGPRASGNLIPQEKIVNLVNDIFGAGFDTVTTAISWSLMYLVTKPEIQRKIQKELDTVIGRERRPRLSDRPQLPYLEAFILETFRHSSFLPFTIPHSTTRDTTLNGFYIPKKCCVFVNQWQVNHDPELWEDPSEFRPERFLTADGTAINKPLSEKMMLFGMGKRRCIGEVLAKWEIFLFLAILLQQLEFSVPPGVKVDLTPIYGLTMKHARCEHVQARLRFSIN
The data set is described as follows: Inhibition of CYP1A2 in human liver microsomes at 10 uM using CYP substrate preincubated for 10 mins followed by NADPH generating system addition and measured after 10 mins by LC-MS/MS analysis relative to control. The data set is classed as ADME. Conditions: time 20 min.

Data set [6] concerns MGC-803. The data set is described as follows: cells. Conditions: Homo sapiens, MGC-803, 72 h.
Description: Antiproliferative activity against human MGC-803 cells incubated for 72 hrs by CCK8 assay
Data set [7] can be described thus: Stability in human liver microsomes assessed as parent compound remaining preincubated for 10 mins followed by NADPH regenerating system addition and measured up to 60 mins by LC-MS/MS analysis. It counts as ADME, Microsome. The note with it: time 10-70 min, read-out: Stabilty.
Another data set concerns the target CYP3A4 (Homo sapiens, UniProt P08684). The data set is described as follows: Inhibition of CYP3A4 in human liver microsomes at 10 uM using CYP substrate preincubated for 10 mins followed by NADPH generating system addition and measured after 10 mins by LC-MS/MS analysis relative to control. It counts as ADME. Conditions: time 20 min.
Data set [8] deals with MGC-803. The data set is described as follows: Induction of apoptosis in human MGC-803 cells after 72 hrs by Annexin V-FITC/propidium iodide staining based flow cytometry. It counts as functional, cell-based.
In data set [9] the test system is MGC-803. The data set is described as follows: Cell cycle arrest in human MGC-803 cells assessed as decrease in G2/M phase accumulation at 4 uM after 72 hrs by propidium iodide staining based flow cytometry. It counts as functional.
A short description of data set [10]: Toxicity in human MGC-803 cells xenografted Balb/c nude mouse assessed as body weight loss at 50 to 100 mg/kg, po administered once daily via gavage for 21 days measured at 3 days interval during compound dosing. It counts as organism-based. The note with it: in vivo, 504 h, dose 50-100 mg/kg, time 21 day.
In data set [11] the target is T3, Amine oxidase [flavin-containing] B (Homo sapiens, UniProt P27338).
T3 sequence (P27338 whole entry): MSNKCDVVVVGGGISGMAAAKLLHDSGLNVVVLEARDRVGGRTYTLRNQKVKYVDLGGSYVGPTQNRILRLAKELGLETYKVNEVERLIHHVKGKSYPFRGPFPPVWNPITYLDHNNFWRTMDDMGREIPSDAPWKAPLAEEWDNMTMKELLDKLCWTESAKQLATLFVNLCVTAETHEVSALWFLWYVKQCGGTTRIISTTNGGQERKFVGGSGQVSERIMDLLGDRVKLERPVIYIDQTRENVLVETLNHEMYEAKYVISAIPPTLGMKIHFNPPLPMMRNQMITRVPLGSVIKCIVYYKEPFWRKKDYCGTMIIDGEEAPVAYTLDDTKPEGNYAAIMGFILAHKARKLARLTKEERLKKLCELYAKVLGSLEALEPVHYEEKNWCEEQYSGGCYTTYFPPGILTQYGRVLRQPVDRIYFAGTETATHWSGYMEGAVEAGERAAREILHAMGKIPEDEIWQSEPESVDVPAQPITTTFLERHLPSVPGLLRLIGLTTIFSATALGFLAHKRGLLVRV
The data set is described as follows: Inhibition of recombinant N-terminal FLAG-tagged human MAOB expressed in baculovirus infected Sf9 insect cells using luminogenic MAO substrate measured after 1 hr by MAO-glo assay.

Data set [12] has as its target T4, Amine oxidase [flavin-containing] A (Homo sapiens, UniProt P21397).
T4 sequence (P21397 whole entry): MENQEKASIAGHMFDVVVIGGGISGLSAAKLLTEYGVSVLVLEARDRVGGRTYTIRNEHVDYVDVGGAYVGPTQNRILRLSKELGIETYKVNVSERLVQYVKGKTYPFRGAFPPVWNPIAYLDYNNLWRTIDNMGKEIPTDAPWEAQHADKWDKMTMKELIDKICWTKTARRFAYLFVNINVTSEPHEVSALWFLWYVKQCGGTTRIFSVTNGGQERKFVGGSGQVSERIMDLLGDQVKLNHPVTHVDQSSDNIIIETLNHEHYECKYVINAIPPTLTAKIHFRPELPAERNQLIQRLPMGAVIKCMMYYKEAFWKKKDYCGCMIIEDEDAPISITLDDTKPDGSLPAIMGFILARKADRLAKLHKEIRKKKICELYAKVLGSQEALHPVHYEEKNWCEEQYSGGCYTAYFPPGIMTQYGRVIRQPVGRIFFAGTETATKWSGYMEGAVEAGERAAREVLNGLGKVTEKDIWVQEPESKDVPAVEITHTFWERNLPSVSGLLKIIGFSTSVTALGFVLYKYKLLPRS
The data set is described as follows: Inhibition of recombinant N-terminal FLAG-tagged human MAOA expressed in baculovirus infected Sf9 insect cells using luminogenic MAO substrate measured after 1 hr by MAO-glo assay.

Data set [13] in a line: Intrinsic clearance in human microsomes preincubated for 10 mins followed by NADPH regenerating system addition and measured up to 60 mins by LC-MS/MS analysis. It counts as ADME, Microsome. Conditions: time 10-70 min.
A short description of data set [14]: Half life in human liver microsomes preincubated for 10 mins followed by NADPH regenerating system addition and measured up to 60 mins by LC-MS/MS analysis. It counts as ADME, Microsome. Conditions: time 10-70 min.
The next data set relates to PC-3. The data set is described as follows: cells. Conditions: Homo sapiens, PC-3, 72 h.
Data set [15] has as its system MGC-803. The data set is described as follows: Antitumor activity against human MGC-803 cells xenografted in Balb/c nude mouse assessed as reduction in tumor volume at 100 mg/kg, po administered once daily via gavage for 21 days measured post last dose relative to control. More on the design: scale not given: the % may be the effect or the level left. It counts as functional. Conditions: time 21 day.

Data set [16] concerns MGC-803. The data set is described as follows: Antitumor activity against human MGC-803 cells xenografted in Balb/c nude mouse assessed as reduction in tumor weight at 100 mg/kg, po administered once daily via gavage for 21 days measured post last dose relative to control. Conditions: time 21 day. The data set is classed as functional. More on the design: scale not given: the % may be the effect or the level left.

Data set [17] deals with MGC-803. The data set is described as follows: Induction of apoptosis in human MGC-803 cells assessed as apoptotic rate at 4 uM after 72 hrs by Annexin V-FITC/propidium iodide staining based flow cytometry relative to control. The data set is classed as functional.
A further data set deals with A549. The data set is described as follows: cells. The note with it: Homo sapiens, A549, 72 h.
The next data set relates to MCF7. The data set is described as follows: cells. The note with it: Homo sapiens, MCF7, 72 h.

SMILES strings stand for the structures. The source made the active and inactive calls. No cut-off for these calls is given here.

CYP3A4, sequence (P08684 whole entry): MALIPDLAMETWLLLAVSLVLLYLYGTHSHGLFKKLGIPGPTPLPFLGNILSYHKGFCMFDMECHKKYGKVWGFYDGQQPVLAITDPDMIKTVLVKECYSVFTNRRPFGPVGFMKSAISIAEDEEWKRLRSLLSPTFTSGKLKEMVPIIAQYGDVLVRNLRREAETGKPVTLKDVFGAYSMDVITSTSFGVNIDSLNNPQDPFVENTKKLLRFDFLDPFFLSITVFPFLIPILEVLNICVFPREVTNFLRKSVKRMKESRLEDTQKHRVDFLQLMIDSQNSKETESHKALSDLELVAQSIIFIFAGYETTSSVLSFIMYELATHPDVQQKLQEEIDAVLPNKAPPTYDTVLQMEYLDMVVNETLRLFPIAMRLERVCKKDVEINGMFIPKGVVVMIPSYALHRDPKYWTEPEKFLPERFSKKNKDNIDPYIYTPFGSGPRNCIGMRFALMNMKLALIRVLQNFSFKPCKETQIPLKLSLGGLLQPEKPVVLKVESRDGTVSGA
Description for A549: Antiproliferative activity against human A549 cells incubated for 72 hrs by CCK8 assay
Description for MCF7: Antiproliferative activity against human MCF7 cells incubated for 72 hrs by CCK8 assay
Description for NB-4: Antiproliferative activity against human NB-4 cells incubated for 72 hrs by CCK8 assay
Description for PC-3: Antiproliferative activity against human PC-3 cells incubated for 72 hrs by CCK8 assay
Description for THP-1: Antiproliferative activity against human THP-1 cells incubated for 72 hrs by CCK8 assay

For `CCOCc1cccc(NC(=O)c2cc3sccc3n2C)c1COc1ccc(OC[C@H]2CCNC2)cc1`, the IC50 turned out to be 0.1 nM in data set [1] and 7.8 nM in data set [2].

Take `Cn1c(C(=O)Nc2cccc3c2N(Cc2ccc(OC4CCNCC4)cc2)CCC3)cc2cc(F)ccc21`: the IC50 in [1] is 0.54 nM; in the data set on NB-4, 1130 nM; in the data set on THP-1, 9630 nM; with MGC-803 [6] it was 1750 nM; in data set [11] it was over 50000 nM; in data set [12], over 50000 nM. For the same compound, the IC50 is 4290 nM with PC-3, 3010 nM with A549 and 9490 nM with MCF7. The inhibition at 10 min, 10 µM amounted to 6.1% on CYP2D6; 0% against CYP2C9; 16.1% at CYP2C19; 4.6% against CYP1A2; 40.1% against CYP3A4. For the same compound, the Stabilty in data set [3] is on record as 122.6%. Also, the inhibition result in [4] was “Dose-dependent effect”. Also, the outcome with MGC-803 [5] and in the data set on MGC-803 [9] was Active. Besides, the remaining at 1 h in [7] amounted to 57.5%. For the same compound, the Activity entry with MGC-803 [8] was “Dose-dependent effect”; in data set [10] it was “Non-Toxic”; with MGC-803 [15], 28.6%; in the data set on MGC-803 [16], 28.1%; in the data set on MGC-803 [17] it was 24.86%. Besides, the microsomal CLint in data set [13] worked out at 22.4 µL/min/mg. The half-life in data set [14] turned out to be 1.03 h.

For the origin of these results see ChEMBL document CHEMBL4680245, “Design, synthesis and biological evaluation of tetrahydroquinoline-based reversible LSD1 inhibitors” (Eur J Med Chem, 2020).
